*1 amine or outer side, *2 acyl side, *3 side chain or, on linkers, in order; H or OH if unused. Where a SMILES comes first, the peptide text is derived from it. Bridges are numbered along the chain shown (N, C = ends). The star is where a group is joined. C20 diacid = O=C(O)CCCCCCCCCCCCCCCCCCC(=O)*; C18 diacid = O=C(O)CCCCCCCCCCCCCCCCC(=O)*; γGlu = O=C(O)[C@H](CCC(=O)[*:2])N[*:1]; AEEA = NCCOCCOCC(=O)O

In this test the target is T1, Amylin 3(a) receptor (human calcitonin receptor (CTa) and RAMP-3) (Homo sapiens, UniProt O60896+P30988).
T1 construct: expressed in transfected cells; host or cells: BHK570 cells, stably transfected with a CRE-luciferase reporter
T1 sequence (O60896 24-148): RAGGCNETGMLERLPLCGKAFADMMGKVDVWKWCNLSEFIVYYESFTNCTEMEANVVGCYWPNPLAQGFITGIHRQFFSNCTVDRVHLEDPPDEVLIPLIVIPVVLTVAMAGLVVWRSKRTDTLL
T1 sequence (P30988 25-474): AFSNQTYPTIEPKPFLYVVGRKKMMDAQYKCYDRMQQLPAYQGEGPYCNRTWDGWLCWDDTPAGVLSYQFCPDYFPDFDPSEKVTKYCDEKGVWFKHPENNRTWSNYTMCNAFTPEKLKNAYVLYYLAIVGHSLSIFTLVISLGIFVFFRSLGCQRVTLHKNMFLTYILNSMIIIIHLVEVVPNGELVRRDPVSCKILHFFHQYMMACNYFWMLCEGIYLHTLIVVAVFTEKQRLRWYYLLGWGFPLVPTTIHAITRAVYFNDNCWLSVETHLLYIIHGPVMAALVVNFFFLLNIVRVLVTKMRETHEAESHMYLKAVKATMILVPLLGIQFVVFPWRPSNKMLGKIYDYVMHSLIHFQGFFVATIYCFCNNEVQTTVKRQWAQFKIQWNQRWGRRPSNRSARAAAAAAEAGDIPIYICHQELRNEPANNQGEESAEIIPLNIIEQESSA
Nature of the test: Luciferase assay (III), BHK Amylin 3(a)//CRE-luc cells. The following applies: BHK cells with Amylin 3(a) receptor and CRE luciferase reporter, 4 hours incubation; read-out: Potency Luciferase. The format is cell-based. A digest of the protocol: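 BHK570 cells stably expressing CTa, RAMP-3 and a CRE-luciferase reporter, seeded at about 20,000 cells/well and grown overnight. Cells were exposed to standard or sample for 4 h at 37° C in phenol red-free DMEM with 10% FBS and 10 mM Hepes, pH 7,4. Luminescence was read after 30 min LucLite at room temperature.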

With `CC[C@H](C)[C@H](NC(=O)[C@@H]1CCCN1C(=O)CNC(=O)[C@H](Cc1ccccc1)NC(=O)[C@H](CC(N)=O)NC(=O)[C@H](CC(N)=O)NC(=O)[C@H](CO)NC(=O)[C@H](CO)NC(=O)[C@H](Cc1c[nH]cn1)NC(=O)[C@H](Cc1c[nH]cn1)NC(=O)[C@H](CC(C)C)NC(=O)[C@H](Cc1ccccc1)NC(=O)[C@H](CC(N)=O)NC(=O)[C@H](C)NC(=O)[C@H](CC(C)C)NC(=O)[C@H](CCCNC(=N)N)NC(=O)[C@H](CCC(N)=O)NC(=O)[C@@H](NC(=O)[C@H](C)NC(=O)[C@@H]1CSSC[C@H](NC(=O)COCCOCCNC(=O)COCCOCCNC(=O)CC[C@H](NC(=O)CCCCCCCCCCCCCCCCC(=O)O)C(=O)O)C(=O)N[C@@H](CC(N)=O)C(=O)N[C@@H]([C@@H](C)O)C(=O)N[C@@H](C)C(=O)N[C@@H]([C@@H](C)O)C(=O)N1)[C@@H](C)O)C(=O)N[C@@H](CC(C)C)C(=O)N1CCC[C@H]1C(=O)N1CCC[C@H]1C(=O)N[C@H](C(=O)N[C@@H](CC(N)=O)C(=O)N[C@H](C(=O)NCC(=O)N[C@@H](CO)C(=O)N[C@@H](CC(N)=O)C(=O)N[C@H](C(=O)N[C@@H](Cc1ccc(O)cc1)C(N)=O)[C@@H](C)O)C(C)C)[C@@H](C)O` [Example 62, N-alpha-[2-(2-{2-[2-(2-{2-[(S)-4-Carboxy-4-(17-carboxyheptadecanoylamino)butyrylamino]ethoxy}ethoxy)acetylamino]ethoxy}ethoxy)acetyl][His17]-pramlintide (2-37)] ({C18 diacid-γGlu-AEEA-AEEA}-CNTATCATQRLANFLHHSSNNFGPILPPTNVGSNTY-NH2; disulfide 1-6), the EC50 was 0.04 nM.
In the case of `CC[C@H](C)[C@H](NC(=O)[C@@H]1CCCN1C(=O)CNC(=O)[C@H](Cc1ccccc1)NC(=O)[C@H](CC(N)=O)NC(=O)[C@H](CCC(N)=O)NC(=O)[C@H](CO)NC(=O)[C@H](CO)NC(=O)[C@H](Cc1c[nH]cn1)NC(=O)[C@H](Cc1c[nH]cn1)NC(=O)[C@H](CC(C)C)NC(=O)[C@H](Cc1ccccc1)NC(=O)[C@H](CC(N)=O)NC(=O)[C@H](C)NC(=O)[C@H](CC(C)C)NC(=O)[C@H](CCCNC(=N)N)NC(=O)[C@H](CCC(N)=O)NC(=O)[C@@H](NC(=O)[C@H](C)NC(=O)[C@@H]1CSSC[C@H](NC(=O)[C@H](CCCNC(=N)N)NC(=O)[C@H](Cc2c[nH]cn2)NC(=O)[C@H](Cc2c[nH]cn2)NC(=O)[C@H](CCC(=O)O)NC(=O)CC[C@H](NC(=O)CCCCCCCCCCCCCCCCCCC(=O)O)C(=O)O)C(=O)N[C@@H](CC(N)=O)C(=O)N[C@@H]([C@@H](C)O)C(=O)N[C@@H](C)C(=O)N[C@@H]([C@@H](C)O)C(=O)N1)[C@@H](C)O)C(=O)N[C@@H](CC(C)C)C(=O)N1CCC[C@H]1C(=O)N1CCC[C@H]1C(=O)N[C@H](C(=O)N[C@@H](CC(N)=O)C(=O)N[C@H](C(=O)NCC(=O)N[C@@H](CO)C(=O)N[C@@H](CC(N)=O)C(=O)N[C@H](C(=O)N[C@@H](Cc1ccc(O)cc1)C(N)=O)[C@@H](C)O)C(C)C)[C@@H](C)O` [Example 63, N-alpha-[(S)-4-Carboxy-4-(19-carboxynonadecanoylamino)butyryl]-GluHis-His-[Arg1,His17,Gln21]-pramlintide] ({C20 diacid-γGlu}-EHHRCNTATCATQRLANFLHHSSQNFGPILPPTNVGSNTY-NH2; disulfide 5-10) it was 0.1 nM; in that of `CC[C@H](C)[C@H](NC(=O)[C@@H]1CCCN1C(=O)CNC(=O)[C@H](Cc1ccccc1)NC(=O)[C@H](CC(N)=O)NC(=O)[C@H](CCC(N)=O)NC(=O)[C@H](CO)NC(=O)[C@H](CO)NC(=O)[C@H](Cc1c[nH]cn1)NC(=O)[C@H](CCCNC(=N)N)NC(=O)[C@H](CC(C)C)NC(=O)[C@H](Cc1ccccc1)NC(=O)[C@H](CC(N)=O)NC(=O)[C@H](C)NC(=O)[C@H](CC(C)C)NC(=O)[C@H](CCCNC(=N)N)NC(=O)[C@H](CCC(N)=O)NC(=O)[C@@H](NC(=O)[C@H](C)NC(=O)[C@@H]1CSSC[C@H](NC(=O)[C@H](CCCNC(=N)N)NC(=O)[C@H](Cc2c[nH]cn2)NC(=O)[C@H](Cc2c[nH]cn2)NC(=O)COCCOCCNC(=O)CC[C@H](NC(=O)CCCCCCCCCCCCCCCCCCC(=O)O)C(=O)O)C(=O)N[C@@H](CC(N)=O)C(=O)N[C@@H]([C@@H](C)O)C(=O)N[C@@H](C)C(=O)N[C@@H]([C@@H](C)O)C(=O)N1)[C@@H](C)O)C(=O)N[C@@H](CC(C)C)C(=O)N1CCC[C@H]1C(=O)N1CCC[C@H]1C(=O)N[C@H](C(=O)N[C@@H](CC(N)=O)C(=O)N[C@H](C(=O)NCC(=O)N[C@@H](CO)C(=O)N[C@@H](CC(N)=O)C(=O)N[C@H](C(=O)N[C@@H](Cc1ccc(O)cc1)C(N)=O)[C@@H](C)O)C(C)C)[C@@H](C)O` [Example 65, N-alpha-[2-(2-{2-[4-(S)-Carboxy-4-(19-carboxynonadecanoylamino)butyrylamino]ethoxy}ethoxy)acetyl]-His-His-[Arg1,Arg17,Gln21]-pramlintide] ({C20 diacid-γGlu-AEEA}-HHRCNTATCATQRLANFLRHSSQNFGPILPPTNVGSNTY-NH2; disulfide 4-9), 0.1 nM.
On to `CC[C@H](C)[C@H](NC(=O)[C@@H]1CCCN1C(=O)CNC(=O)[C@H](Cc1ccccc1)NC(=O)[C@H](CC(N)=O)NC(=O)[C@H](CC(N)=O)NC(=O)[C@H](CO)NC(=O)[C@H](CO)NC(=O)[C@H](Cc1c[nH]cn1)NC(=O)[C@H](Cc1c[nH]cn1)NC(=O)[C@H](CC(C)C)NC(=O)[C@H](Cc1ccccc1)NC(=O)[C@H](CC(N)=O)NC(=O)[C@H](C)NC(=O)[C@H](CC(C)C)NC(=O)[C@H](CCCNC(=N)N)NC(=O)[C@H](CCC(N)=O)NC(=O)[C@@H](NC(=O)[C@H](C)NC(=O)[C@@H]1CSSC[C@H](NC(=O)[C@H](Cc2c[nH]cn2)NC(=O)[C@H](CCCNC(=N)N)NC(=O)[C@H](Cc2c[nH]cn2)NC(=O)[C@H](CCC(=O)O)NC(=O)CC[C@H](NC(=O)CCCCCCCCCCCCCCCCCCC(=O)O)C(=O)O)C(=O)N[C@@H](CC(N)=O)C(=O)N[C@@H]([C@@H](C)O)C(=O)N[C@@H](C)C(=O)N[C@@H]([C@@H](C)O)C(=O)N1)[C@@H](C)O)C(=O)N[C@@H](CC(C)C)C(=O)N1CCC[C@H]1C(=O)N1CCC[C@H]1C(=O)N[C@H](C(=O)N[C@@H](CC(N)=O)C(=O)N[C@H](C(=O)NCC(=O)N[C@@H](CO)C(=O)N[C@@H](CC(N)=O)C(=O)N[C@H](C(=O)N[C@@H](Cc1ccc(O)cc1)C(N)=O)[C@@H](C)O)C(C)C)[C@@H](C)O` [Example 66, N-alpha-[(S)-4-Carboxy-4-(19-carboxynonadecanoylamino)butyryl]-Glu-His-Arg-[His1,His17]-pramlintide] ({C20 diacid-γGlu}-EHRHCNTATCATQRLANFLHHSSNNFGPILPPTNVGSNTY-NH2; disulfide 5-10), for which the EC50 stood at 0.1 nM.
As for `CC[C@H](C)[C@H](NC(=O)[C@@H]1CCCN1C(=O)CNC(=O)[C@H](Cc1ccccc1)NC(=O)[C@H](CC(N)=O)NC(=O)[C@H](CC(N)=O)NC(=O)[C@H](CO)NC(=O)[C@H](CO)NC(=O)[C@H](Cc1c[nH]cn1)NC(=O)[C@H](Cc1c[nH]cn1)NC(=O)[C@H](CC(C)C)NC(=O)[C@H](Cc1ccccc1)NC(=O)[C@H](CC(N)=O)NC(=O)[C@H](C)NC(=O)[C@H](CC(C)C)NC(=O)[C@H](CCCNC(=N)N)NC(=O)[C@H](CCC(N)=O)NC(=O)[C@@H](NC(=O)[C@H](C)NC(=O)[C@@H]1CSSC[C@H](NC(=O)[C@H](CCCNC(=N)N)NC(=O)[C@H](Cc2c[nH]cn2)NC(=O)[C@H](Cc2c[nH]cn2)NC(=O)[C@H](CCC(=O)O)NC(=O)CC[C@H](NC(=O)CCCCCCCCCCCCCCCCCCC(=O)O)C(=O)O)C(=O)N[C@@H](CC(N)=O)C(=O)N[C@@H]([C@@H](C)O)C(=O)N[C@@H](C)C(=O)N[C@@H]([C@@H](C)O)C(=O)N1)[C@@H](C)O)C(=O)N[C@@H](CC(C)C)C(=O)N1CCC[C@H]1C(=O)N1CCC[C@H]1C(=O)N[C@H](C(=O)N[C@@H](CC(N)=O)C(=O)N[C@H](C(=O)NCC(=O)N[C@@H](CO)C(=O)N[C@@H](CC(N)=O)C(=O)N[C@H](C(=O)N[C@@H](Cc1ccc(O)cc1)C(N)=O)[C@@H](C)O)C(C)C)[C@@H](C)O` [Example 67, N-alpha-[(S)-4-Carboxy-4-(19-carboxynonadecanoylamino)butyryl]-Glu-His-His-[Arg1,His17]-pramlintide] ({C20 diacid-γGlu}-EHHRCNTATCATQRLANFLHHSSNNFGPILPPTNVGSNTY-NH2; disulfide 5-10), the figure is 0.1 nM.
In the case of `CC[C@H](C)[C@H](NC(=O)[C@@H]1CCCN1C(=O)CNC(=O)[C@H](Cc1ccccc1)NC(=O)[C@H](CC(N)=O)NC(=O)[C@H](CCC(N)=O)NC(=O)[C@H](CO)NC(=O)[C@H](CO)NC(=O)[C@H](Cc1c[nH]cn1)NC(=O)[C@H](CCCNC(=N)N)NC(=O)[C@H](CC(C)C)NC(=O)[C@H](Cc1ccccc1)NC(=O)[C@H](CC(N)=O)NC(=O)[C@H](C)NC(=O)[C@H](CC(C)C)NC(=O)[C@H](CCCNC(=N)N)NC(=O)[C@H](CCC(N)=O)NC(=O)[C@@H](NC(=O)[C@H](C)NC(=O)[C@@H]1CSSC[C@H](NC(=O)[C@H](CCCNC(=N)N)NC(=O)[C@H](Cc2c[nH]cn2)NC(=O)[C@H](Cc2c[nH]cn2)NC(=O)[C@H](CCC(=O)O)NC(=O)CC[C@H](NC(=O)CCCCCCCCCCCCCCCCCCC(=O)O)C(=O)O)C(=O)N[C@@H](CC(N)=O)C(=O)N[C@@H]([C@@H](C)O)C(=O)N[C@@H](C)C(=O)N[C@@H]([C@@H](C)O)C(=O)N1)[C@@H](C)O)C(=O)N[C@@H](CC(C)C)C(=O)N1CCC[C@H]1C(=O)N1CCC[C@H]1C(=O)N[C@H](C(=O)N[C@@H](CC(N)=O)C(=O)N[C@H](C(=O)NCC(=O)N[C@@H](CO)C(=O)N[C@@H](CC(N)=O)C(=O)N[C@H](C(=O)N[C@@H](Cc1ccc(O)cc1)C(N)=O)[C@@H](C)O)C(C)C)[C@@H](C)O` [Example 68, N-alpha-[(S)-4-Carboxy-4-(19-carboxynonadecanoylamino)butyryl]-Glu-His-His-[Arg1,Arg17,Gln21]-pramlintide] ({C20 diacid-γGlu}-EHHRCNTATCATQRLANFLRHSSQNFGPILPPTNVGSNTY-NH2; disulfide 5-10), the EC50 was 0.1 nM.

The record behind these values is US8895504B2, “Amylin derivatives” (priority 2008, dated 2014).
